From patent US10125097B2, “1- [1-(benzoyl)-pyrrolidine-2-carbonyl]-pyrrolidine-2-carbonitrile derivatives” (UNIVERSITAT DE BARCELONA, priority 2012, dated 2018) come the findings set out here.

A word on the IC50: it is the concentration needed to halve the response being measured.

The assay has as its target human prolyl oligopeptidase (Homo sapiens (Human), UniProt P48147). The assay is described as follows: POP inhibition assay (Z-G-P-AMC substrate, fluorimetric). The class given is biochemical. Conditions: 100 mM Na/K phosphate buffer, pH 8.0, hPOP 20 to 60 nM, Z-G-P-AMC, 1 hour at 37° C.; read-out: IC50, inhibition of human prolyl oligopeptidase. As for the experimental part:
Expression and Purification of Prolyl Oligopeptidase (POP)
POP was obtained by expression in E. coli and affinity purification using a His tail fusion according to a literature procedure (Tarragó T et al., ChemBioChem 2006; 7:827-33) summarized below:
hPOP expression: E. coli BL21 competent cells were transformed with pETM10 hPOP. To induce expression, a pre-culture of LB medium (50 mL) containing kanamycin (50 μg/mL) was inoculated with one colony and was grown overnight at 37° C. Next day, two cultures of LB medium (500 mL) were inoculated with the overnight culture (10 mL). The inoculated cultures were grown at 37° C. and 220 rpm until the OD595 was 1.2 (2.5-3 hours). IPTG was then added (final concentration of 1 mM) and induction was performed overnight at 25° C. Cells were harvested (3500 g, 15 min, 4° C.) and the pellet was suspended in suspension buffer (50 mL) [Tris-HCl pH 8 (50 mM), NaCl (300 mM), imidazole (1 mM)] and sonicated with use of four cycles (each consisting of 15 sec of sonication and 15 sec of rest) at an intensity of 50% and 0.5 pulses, the sample being kept on ice. After sonication, the sample was centrifuged (40 000 g, 30 min, 4° C.) and the supernatant was used immediately for POP purification. An ÁKTA explorer FPLC system was used for purification. The supernatant was applied at a flow of 1 mL/min to a HiTrapQuelating column (5 mL) previously equilibrated with 5 column volumes of suspension buffer. The column was washed with suspension buffer until the absorbance at 280 nm returned to basal level. The column was then rinsed with 5 volumes of washing buffer (50 mM Tris-HCl, pH 8, 300 mM NaCl, 30 mM imidazole). The elution was performed with 4 volumes of elution buffer (50 mM Tris-HCl, pH 8, 300 mM NaCl, 500 mM imidazole). Fractions (4 mL) were collected during the entire elution. POP activity was checked in all fractions and positive ones were analyzed by SDS-PAGE and stained with Biosafe Comassie Stain G-250. Positive fractions were collected and desalted by use of a HiPrep 26/10 Desalting column with Tris-HCl (50 mM, pH 8) as buffer. Recombinant hPOP was quantified with the Bio-Rad Protein Assay with BSA as standard. Aliquots of the recombinant enzyme were prepared and immediately frozen with liquid nitrogen and stored at −80° C.
POP activity was determined following the method described by Toide et al (Toide K et al., J. Pharmacol. Exp. Ther. 1995; 274:1370-8), using Z-G-P-AMC (N-benzyloxycarbonyl-Gly-Pro-methylcoumarinyl-7-amide) as POP substrate. The reactions were performed in 96-well microtiter plates, which allowed simultaneous monitoring of multiple reactions. For each reaction, activity buffer (134 μl, 100 mM Na/K phosphate buffer, pH 8.0) was pre-incubated for 15 min at 37° C. with hPOP (ranging from 20 to 60 nM, depending on the activity of the hPOP batch) and the corresponding new compound solution (3 μl). A stock solution of new compound was prepared in DMSO (100 mM), and dilutions were prepared from this stock solution with DMSO. Alternatively, the reactions were performed using another activity buffer (141 μL, 100 mM Tris-acetate, […], 1 mM DTT, pH 7.3), pre-incubating with hPOP (10 nM) and the corresponding new compound solution (3 μl) (Conditions B).
After preincubation, Z-G-P-AMC (10 μl, 3 mM in 40% 1,4-dioxane) was added (3 μl, 1.5 mM in 40% of 1,4-dioxane, in Conditions B), and the reaction was incubated for 1 hour at 37° C. The reaction was stopped by adding sodium acetate (150 μl, 1 M, pH 4) and the formation of AMC was measured fluorimetrically. The excitation and emission wavelengths were 360/40 and 485/20 nm, respectively.
Several concentration points (ranging from 25 μM to 400 μM) were measured for each compound. The inhibitory activity on prolyl oligopeptidase was calculated according to eq 1. For each new compound, the fluorescence in the presence (a) and in the absence of hPOP (b) was measured. […]

Each structure is given as a SMILES string.

human prolyl oligopeptidase, sequence (P48147 whole entry): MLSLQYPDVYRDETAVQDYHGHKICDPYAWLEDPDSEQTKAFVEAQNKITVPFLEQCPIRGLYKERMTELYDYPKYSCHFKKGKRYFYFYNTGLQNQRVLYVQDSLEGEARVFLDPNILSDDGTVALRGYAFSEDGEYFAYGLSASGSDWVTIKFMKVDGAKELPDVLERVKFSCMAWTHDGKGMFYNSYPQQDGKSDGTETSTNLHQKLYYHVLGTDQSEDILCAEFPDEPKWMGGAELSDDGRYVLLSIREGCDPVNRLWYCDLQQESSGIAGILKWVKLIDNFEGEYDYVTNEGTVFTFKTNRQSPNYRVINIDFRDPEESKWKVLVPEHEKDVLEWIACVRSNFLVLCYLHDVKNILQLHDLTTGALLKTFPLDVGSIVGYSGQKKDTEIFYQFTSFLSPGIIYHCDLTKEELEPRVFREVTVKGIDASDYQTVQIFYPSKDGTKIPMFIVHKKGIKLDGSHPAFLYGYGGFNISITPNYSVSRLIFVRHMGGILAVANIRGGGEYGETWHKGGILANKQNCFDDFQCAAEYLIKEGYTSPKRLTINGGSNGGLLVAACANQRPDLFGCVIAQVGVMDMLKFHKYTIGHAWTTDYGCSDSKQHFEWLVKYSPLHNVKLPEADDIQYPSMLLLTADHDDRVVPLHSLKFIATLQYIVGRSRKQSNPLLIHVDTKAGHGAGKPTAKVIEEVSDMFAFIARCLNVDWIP

For `COc1cc(C(=O)N2CC(F)(F)C[C@H]2C(=O)N2CCC[C@H]2C#N)cc(OC)c1OCc1ccccc1` [Example 4, (S)-1-((2S)-1-(4-(benzyloxy)-3,5-dimethoxybenzoyl)-4,4-difluoropyrrolidine-2-carbonyl)pyrrolidine-2-carbonitrile], the IC50 turned out to be 48.7 nM.
